Residues, ends and D or L forms follow the SMILES beside them.
Tests used:
[1] = target: Neuronal acetylcholine receptor; alpha3/beta2 (Homo sapiens, UniProt P17787+P32297); assay: Inhibition of alpha3beta2 nAChR; assay type: protein-complex assay
[2] = Selectivity ratio of IC50 for alpha6beta2 nAChR to IC50 for alpha3beta2 nAChR
[3] = target: Neuronal acetylcholine receptor; alpha6/beta2 (Homo sapiens, UniProt P17787+Q15825); assay: Inhibition of alpha6beta2 nAChR; assay type: protein-complex assay
Chain of Neuronal acetylcholine receptor; alpha6/beta2 (P17787 whole entry): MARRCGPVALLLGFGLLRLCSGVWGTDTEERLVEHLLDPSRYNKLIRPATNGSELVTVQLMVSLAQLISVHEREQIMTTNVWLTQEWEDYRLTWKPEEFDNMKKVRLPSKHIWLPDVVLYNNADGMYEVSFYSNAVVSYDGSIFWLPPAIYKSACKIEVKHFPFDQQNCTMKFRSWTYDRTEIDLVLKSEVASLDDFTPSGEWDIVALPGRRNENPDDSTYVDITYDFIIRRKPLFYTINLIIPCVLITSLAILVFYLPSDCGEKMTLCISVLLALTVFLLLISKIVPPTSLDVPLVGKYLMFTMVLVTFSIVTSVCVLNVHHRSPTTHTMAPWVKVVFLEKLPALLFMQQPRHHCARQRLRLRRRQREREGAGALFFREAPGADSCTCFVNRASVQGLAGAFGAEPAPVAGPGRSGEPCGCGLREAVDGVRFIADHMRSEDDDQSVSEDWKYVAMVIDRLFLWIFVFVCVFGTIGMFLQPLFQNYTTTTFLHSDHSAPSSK
Chain of Neuronal acetylcholine receptor; alpha6/beta2 (Q15825 whole entry): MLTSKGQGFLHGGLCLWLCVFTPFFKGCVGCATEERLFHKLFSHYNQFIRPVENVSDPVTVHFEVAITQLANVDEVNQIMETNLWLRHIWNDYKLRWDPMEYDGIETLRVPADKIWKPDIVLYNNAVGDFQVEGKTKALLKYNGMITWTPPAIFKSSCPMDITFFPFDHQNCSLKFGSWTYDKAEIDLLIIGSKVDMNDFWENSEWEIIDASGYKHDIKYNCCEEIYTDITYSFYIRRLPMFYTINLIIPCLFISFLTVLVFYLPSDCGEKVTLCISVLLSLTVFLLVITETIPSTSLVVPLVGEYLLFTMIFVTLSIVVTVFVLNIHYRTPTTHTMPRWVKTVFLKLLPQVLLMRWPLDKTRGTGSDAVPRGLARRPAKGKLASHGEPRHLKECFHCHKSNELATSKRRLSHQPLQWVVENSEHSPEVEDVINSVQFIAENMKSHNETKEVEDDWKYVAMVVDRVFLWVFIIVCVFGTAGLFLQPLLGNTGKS

[4] = Selectivity for alpha3beta2 nAChR over alpha6beta2 nAChR

Chain of Neuronal acetylcholine receptor; alpha3/beta2 (P17787 whole entry): as the sequence (P17787 whole entry) above
Chain of Neuronal acetylcholine receptor; alpha3/beta2 (P32297 whole entry): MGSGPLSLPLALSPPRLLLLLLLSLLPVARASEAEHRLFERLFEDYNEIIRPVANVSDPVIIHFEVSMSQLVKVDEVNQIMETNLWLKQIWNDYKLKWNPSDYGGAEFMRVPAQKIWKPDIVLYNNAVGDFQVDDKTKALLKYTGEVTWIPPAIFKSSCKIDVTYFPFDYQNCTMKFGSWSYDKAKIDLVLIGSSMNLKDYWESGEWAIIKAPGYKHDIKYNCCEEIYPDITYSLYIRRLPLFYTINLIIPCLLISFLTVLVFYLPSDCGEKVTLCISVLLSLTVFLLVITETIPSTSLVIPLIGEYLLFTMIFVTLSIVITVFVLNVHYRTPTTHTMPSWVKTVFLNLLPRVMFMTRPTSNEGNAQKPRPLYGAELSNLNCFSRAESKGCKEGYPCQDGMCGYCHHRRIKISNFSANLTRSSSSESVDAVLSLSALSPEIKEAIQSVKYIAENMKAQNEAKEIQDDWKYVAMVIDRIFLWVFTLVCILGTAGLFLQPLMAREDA

## CC[C@H](C)[C@H](NC(=O)[C@H](CS)NC(=O)[C@@H]1CCCN1C(=O)[C@@H]1CCCN1C(=O)[C@H](CCCNC(=N)N)NC(=O)[C@H](CO)NC(=O)[C@H](CS)NC(=O)[C@H](CS)NC(=O)CN)C(=O)N[C@@H](C)C(=O)N[C@@H](CC(N)=O)C(=O)N[C@@H](CC(N)=O)C(=O)N1CCC[C@H]1C(=O)N[C@@H](CC(=O)O)C(=O)N[C@@H](CC(C)C)C(=O)N[C@@H](CS)C(=O)O
[1]
  IC50: 3.5 nM

## CC[C@H](C)[C@H](NC(=O)[C@H](Cc1cnc[nH]1)NC(=O)[C@@H]1CCCN1C(=O)[C@H](CC(N)=O)NC(=O)[C@H](CC(N)=O)NC(=O)[C@@H](NC(=O)[C@H](CC(N)=O)NC(=O)[C@H](CS)NC(=O)[C@H](C)NC(=O)[C@@H]1CCCN1C(=O)[C@H](Cc1cnc[nH]1)NC(=O)[C@H](CO)NC(=O)[C@H](CS)NC(=O)[C@H](CS)NC(=O)CN)C(C)C)C(=O)N[C@@H](CS)C(=O)NCC(=O)O (H-GCCSHPACNVNNPHICG-OH)
[2]
  Ratio IC50: 0.0547
[3]
  IC50: 201 nM
[4]
  Selectivity ratio: 20
[1]
  IC50: 11 nM

## CC(C)C[C@H](NC(=O)[C@@H](NC(=O)[C@H](C)NC(=O)[C@H](CS)NC(=O)[C@@H]1CCCN1C(=O)[C@@H]1CCCN1C(=O)[C@@H](NC(=O)[C@H](CO)NC(=O)[C@H](CS)NC(=O)[C@H](CS)NC(=O)CN)[C@@H](C)O)C(C)C)C(=O)N[C@@H](Cc1ccc(O)cc1)C(=O)N[C@@H](CS)C(=O)O (H-GCCSTPPCAVLYC-OH)
[2]
  Ratio IC50: 22
[3]
  IC50: 0.26 nM
[4]
  Selectivity ratio: 20
[1]
  IC50: 5.72 nM
